What is called IC50 is the concentration at which inhibition is half-maximal. A low value points to greater potency.

Results on 29 compounds are retold here after ChEMBL document CHEMBL2424514, “Prediction of glucagon receptor antagonist activities of some substituted imidazoles using combined radial basis function neural network and density functional theory” (Med Chem Res, 2013).

The experiment concerns the target Glucagon receptor (Homo sapiens, UniProt P47871). The experiment in a line: Inhibition of human glucagon receptor expressed in CHO cell membranes by radioligand displacement assay. It is filed as cell-based. A general note: In a radioligand displacement assay an active substance lowers the binding of a labelled ligand.

Glucagon receptor, sequence (P47871 whole entry): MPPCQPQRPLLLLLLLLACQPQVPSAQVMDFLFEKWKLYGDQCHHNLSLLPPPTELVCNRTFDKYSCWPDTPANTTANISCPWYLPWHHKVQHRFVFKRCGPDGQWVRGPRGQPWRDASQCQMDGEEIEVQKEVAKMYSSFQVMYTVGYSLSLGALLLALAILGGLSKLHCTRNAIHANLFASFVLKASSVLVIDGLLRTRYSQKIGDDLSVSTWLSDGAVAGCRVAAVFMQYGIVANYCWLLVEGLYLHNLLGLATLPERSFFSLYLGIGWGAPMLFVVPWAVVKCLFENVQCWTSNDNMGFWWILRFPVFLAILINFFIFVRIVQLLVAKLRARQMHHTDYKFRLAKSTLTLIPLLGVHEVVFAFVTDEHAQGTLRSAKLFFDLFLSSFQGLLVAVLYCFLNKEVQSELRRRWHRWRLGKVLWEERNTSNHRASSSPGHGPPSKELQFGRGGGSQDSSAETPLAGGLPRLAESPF

For the compound `Fc1ccc(-c2nc(-c3ccc(Cl)cc3)[nH]c2-c2ccncc2)cc1`, the half-maximal inhibitory concentration (IC50) was 80.2 nM.

With `Clc1ccc(-c2nc(-c3cccc(-c4ccccc4)c3)c(-c3ccncc3)[nH]2)cc1`, the 50% inhibitory concentration (IC50) is 590 nM.

As to `Fc1ccc(-c2[nH]c(-c3ccccc3Br)nc2-c2ccncc2)cc1`, the IC50 was 90.2 nM.

Compound `CSc1ccc(-c2nc(-c3ccc(F)cc3)c(-c3ccncc3)n2C)cc1` gave a concentration for half-maximal inhibition (IC50) of 521 nM.

On to `CSc1ccc(-c2nc(-c3ccc(F)cc3)c(-c3ccncc3)o2)cc1`, for which the concentration for half-maximal inhibition (IC50) was 931 nM.

Regarding `Clc1ccc(-c2nc(-c3ccc(-c4ccccc4)cc3)c(-c3ccncc3)[nH]2)cc1`, the IC50 was 3300 nM.

As to `Fc1ccc(-c2[nH]c(-c3ccc(I)cc3)nc2-c2ccncc2)cc1`, the IC50 is 100 nM.

On to `Fc1ccc(-c2[nH]c(-c3ccc(-c4ccccc4)cc3)nc2-c2ccncc2)cc1`, for which the IC50 is 301 nM.

In turn, `Fc1ccc(-c2nc(-c3ccc(Br)cc3)[nH]c2-c2ccncc2)cc1` had an IC50 of 160 nM.

Compound `Brc1ccc(-c2nc(-c3ccncc3)c(-c3ccccc3)[nH]2)cc1` showed an IC50 of 40.1 nM.

In the case of `Cc1ccc(-c2nc(-c3ccc(F)cc3)c(-c3ccncc3)[nH]2)cc1`, the IC50 is 90.2 nM.

`Oc1ccc(-c2[nH]c(-c3ccc(Br)cc3)nc2-c2ccccc2)cc1` had an IC50 of 100 nM. This IC50 and that of the compound before are within 1.5-fold of each other.

`Clc1ccc(-c2nc(-c3ccncc3)c(-c3cccc(Oc4ccccc4)c3)[nH]2)cc1` had an IC50 of 220 nM.

`Brc1ccc(-c2nc(-c3ccccc3)c(-c3ccccc3)[nH]2)cc1` had an IC50 of 2200 nM.

The compound `Clc1ccc(-c2nc(-c3ccc(I)cc3)c(-c3ccncc3)[nH]2)cc1` had a 50% inhibitory concentration (IC50) of 140 nM.

Turning to `Fc1ccc(-c2[nH]c(-c3ccc(Br)o3)nc2-c2ccncc2)cc1`, the IC50 is 190 nM.

Regarding `Fc1ccc(-c2[nH]c(-c3ccc(Br)s3)nc2-c2ccncc2)cc1`, the half-inhibitory concentration (IC50) is 110 nM. This IC50 is about 1.7-fold lower than that of the compound before.

On to `Clc1ccc(-c2nc(-c3ccncc3)c(-c3ccc(Cl)cc3)[nH]2)cc1`, for which the IC50 is 23 nM.

Compound `Clc1ccc(-c2nc(-c3ccncc3)c(-c3ccc(Oc4ccccc4)cc3)[nH]2)cc1` had an IC50 of 250 nM.

`Cc1cnccc1-c1nc(-c2ccc(Cl)cc2)[nH]c1-c1ccc(F)cc1` gave a 50% inhibitory concentration (IC50) of 20 nM.

For the compound `Cc1cc(-c2[nH]c(-c3ccc(Cl)cc3)nc2-c2ccc(F)cc2)ccn1`, the IC50 was 50 nM.

`Fc1ccc(-c2[nH]c(-c3cccc(Br)c3)nc2-c2ccncc2)cc1` gave a half-maximal inhibitory concentration (IC50) of 150 nM.

The compound `Fc1ccc(-c2[nH]c(-c3cccc4ccccc34)nc2-c2ccncc2)cc1` gave an IC50 of 340 nM.

`CSc1ccc(-c2nc(-c3ccncc3)c(-c3ccc(F)cc3)n2C)cc1` had a half-inhibitory concentration (IC50) of 861 nM. This IC50 lies about 2.5-fold higher than the previous one.

Consider `CC(C)c1ccc(-c2nc(-c3ccc(F)cc3)c(-c3ccncc3)[nH]2)cc1`, for which the IC50 was 281 nM.

For `Clc1ccc(-c2nc(-c3ccncc3)c(-c3ccccc3Oc3ccccc3)[nH]2)cc1`, the half-inhibitory concentration (IC50) is 150 nM. This IC50 is about 1.9-fold lower than that of the compound before.

For the compound `N#Cc1ccc(-c2nc(-c3ccncc3)c(-c3ccc(F)cc3)[nH]2)cc1`, the half-inhibitory concentration (IC50) was 210 nM.

For `Fc1ccc(-c2[nH]c(CCc3ccccc3)nc2-c2ccncc2)cc1`, the concentration for half-maximal inhibition (IC50) is 120 nM.

`CCCOc1ccc(-c2[nH]c(-c3ccc(Cl)cc3)nc2-c2ccncc2)c(OCCC)c1` gave a half-maximal inhibitory concentration (IC50) of 2400 nM.
